The values that follow come from paper PMC5075098, “Preclinical Evaluation of the Stability, Safety, and Efficacy of CD101, a Novel Echinocandin” (Antimicrobial Agents and Chemotherapy, 2016).

Starred links: 1 amine or outer side, 2 acyl side, 3 side chain; linkers in the order of their positions; H or OH if unused. Positions of bridges follow the written chain, without caps; N, C: chain ends. Non-standard residues stand in square brackets, D forms with d. Residues, ends and D or L forms follow the SMILES beside them. *: point of attachment. Orn(4R-OH,5R-OCH2CH2NMe3+) = C[N+](C)(C)CCO[C@@H](N[*:3])[C@H](O)C[C@H](N[*:1])C(=O)[*:2]; pTerphenylCO(4''-OnC5H11) = CCCCCOc1ccc(-c2ccc(-c3ccc(C(=O)*)cc3)cc2)cc1; hTyr(3S-OH,4S-OH) = N[C@H](C(=O)O)[C@H](O)[C@@H](O)c1ccc(O)cc1; Pro(3S-OH,4S-Me) = C[C@H]1CN[C@H](C(=O)O)[C@H]1O; Hyp = O=C(O)[C@@H]1C[C@@H](O)CN1

In one data set the target is T1, CYP2C8 (Homo sapiens, UniProt P10632).
T1 sequence (P10632 1-490): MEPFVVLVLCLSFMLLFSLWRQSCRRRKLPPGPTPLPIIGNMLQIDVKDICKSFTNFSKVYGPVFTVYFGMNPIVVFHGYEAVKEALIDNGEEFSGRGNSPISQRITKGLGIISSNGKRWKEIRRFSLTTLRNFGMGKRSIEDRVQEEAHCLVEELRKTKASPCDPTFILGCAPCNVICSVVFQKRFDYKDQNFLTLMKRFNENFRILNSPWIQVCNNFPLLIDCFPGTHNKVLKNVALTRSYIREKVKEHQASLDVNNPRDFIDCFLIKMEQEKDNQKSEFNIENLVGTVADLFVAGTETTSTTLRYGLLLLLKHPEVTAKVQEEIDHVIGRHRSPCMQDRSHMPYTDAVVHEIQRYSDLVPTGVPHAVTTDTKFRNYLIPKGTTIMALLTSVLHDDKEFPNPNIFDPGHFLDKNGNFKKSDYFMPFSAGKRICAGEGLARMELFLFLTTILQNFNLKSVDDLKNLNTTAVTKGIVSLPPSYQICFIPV
In words: CYP450 inhibition in human liver microsomes. In general terms: Liver microsomes are vesicles of endoplasmic reticulum, rich in cytochrome P450 enzymes.

Data set [1] can be described thus: Plasma protein binding, rapid equilibrium dialysis. The note with it: mouse, pH 7.4, read-out: protein bound (converted). The class given is in vitro ADME, CD-1 mouse. Here is the method:
Rapid equilibrium dialysis (RED) ([16]) was used to determine cross-species protein binding of CD101 in CD-1 mouse, Sprague-Dawley rat, cynomolgus monkey, chimpanzee, and human plasma. […] Dialysis buffer (350 μl of phosphate-buffered saline [PBS], pH 7.4, with 100 mM sodium phosphate) was loaded into the buffer (left) channel of the RED device. The device was agitated gently at 37°C for 4 h. Samples were placed into a new 96-well plate for matrix matching (25 μl of plasma added to the dialysis buffer aliquots or 25 μl of dialysis buffer to the plasma aliquots). […] Following centrifugation, 200 μl of the supernatant was transferred to a clean 96-well plate and evaporated to dryness at 37°C under nitrogen. Samples were reconstituted in 100 μl of 1:1 acetonitrile-water prior to analysis by LC-MS/MS. The percentage bound was calculated as the difference between 100% and the percentage free (the ratio of the concentration in supernatant to the concentration in plasma).
In general terms: In equilibrium dialysis free small molecules cross a membrane that holds back macromolecules.

Data set [2] can be described thus: Inhibition of recombinant CYP450 enzymes. As to conditions: recombinant CYP450 enzymes 1A2, 2B6, 2C8, 2C9, 2C19, 2D6, 3A4. The class given is in vitro ADME.
For data set [3] the following is noted: after 44 h; cited from earlier work. An excerpt: CD101, a novel echinocandin being developed as a high-exposure, once-weekly intravenous (i.v.) formulation for the treatment and prevention of systemic fungal infections, was designed to be chemically and metabolically stable to avoid hepatotoxicity while retaining the antifungal activity of an echinocandin.

Data set [4] deals with A. fumigatus (ATCC 13073). The data set is described as follows: Neutropenic mouse model of A. fumigatus infection, survival. The note with it: for survival: 10-day observation, n = 10/group.
Method: Animals were immunosuppressed by three i.p. injections of cyclophosphamide (the first injection at 6 mg/mouse 3 days before inoculation and the second and third injections at 2 mg/mouse on 1 and 4 days after inoculation). […] Dose administration started 1 and 7 h after infection. […] An increase of 50% or more in the survival rate of the active groups compared to the vehicle group indicated significant antifungal efficacy.
The nature of data set [5]: 2-week repeat-dose toxicity and hepatotoxicity screening. The class given is in vivo, Sprague-Dawley rats. Here is the method: Dosing solutions were prepared in a vehicle comprising 5% mannitol containing 2.5% polysorbate 80 (Tween 80) in 0.3% acetic acid.
Animals were randomly assigned to dose groups and stratified by weight to achieve similar group mean body weights (males, 255 to 318 g; females, 192 to 215 g). Blood, urine, and liver samples (excised and preserved in 10% neutral buffered formalin) were obtained on day 15. Plasma liver enzyme levels were assessed. Liver tissues were processed to paraffin blocks and prepared for slides. Slides were stained with hematoxylin and eosin. Hematology data were collected using the Advia 120 hematology analyzer. Coagulation data were collected using the Diagnostica STA compact coagulation analyzer. Clinical chemistry data were collected using the AU400 chemistry analyzer. Qualitative and quantitative urinalysis was recorded using iRICELL 1500 UA analyzer. Clinical effects were assessed for determination of the maximum tolerated dose (MTD).
Statistical evaluations were performed on in-life and clinical pathology numerical data to determine statistical significance following a decision tree. First, the homogeneity of the data was determined by Bartlett's test. If the data were homogeneous, a one-way analysis of variance was performed to assess statistical significance. If statistically significant differences between the means were found, Dunnett's test was used to determine the degree of significance from the control means (P < 0.05, P < 0.01, and P < 0.001). If the data were nonhomogeneous, the Kruskal-Wallis nonparametric analysis was performed to assess statistical significance. If statistically significant differences between the means were found (P < 0.05, P < 0.01, and P < 0.001), the Mann-Whitney U test was used to determine the degree of significance from the control means (P < 0.05, P < 0.01, and P < 0.001).

Data set [6] in a line: Reactive metabolite screening (glutathione trapping). The format is in vitro ADME. The procedure:
Samples were diluted to 10 μg/ml into 50:50 acetonitrile-water with 0.1 formic acid. Samples were analyzed by LC (Agilent 1100) with high-resolution MS (Waters quadrupole time of flight [Q-TOF] Premier mass spectrometer with electrospray interface) with concurrent low- and high-energy scans to obtain full-scan parent and product fragment ions. The analytical column was a Phenomenex Kinetex (2.6-μm C18, 100 by 3.0 mm). Waters MassLynx 4.1 software was used for data analysis.

Setting [7] is: CD101 2, 6, 20 mg/kg/day i.v. 14 days, rats.

Usually IC50 stands for the concentration that gives 50% inhibition.

Method for CYP2C8: The final DMSO content in the reaction mixture was equal in all solutions used within an assay and was less than 0.2%. […] After incubation for 5 min at 37°C, the reactions were terminated by addition of methanol-containing internal standard (propranolol) for analytical quantification. The quenched samples were incubated at 4°C for 10 min and centrifuged at 4°C for 10 min.

With `CCCCCOc1ccc(-c2ccc(-c3ccc(C(=O)N[C@H]4C[C@@H](O)[C@@H](OCC[N+](C)(C)C)NC(=O)[C@@H]5[C@@H](O)[C@@H](C)CN5C(=O)[C@H]([C@@H](C)O)NC(=O)[C@H]([C@H](O)[C@@H](O)c5ccc(O)cc5)NC(=O)[C@@H]5C[C@@H](O)CN5C(=O)[C@H]([C@@H](C)O)NC4=O)cc3)cc2)cc1` [CD101] ({pTerphenylCO(4''-OnC5H11)}-[Orn(4R-OH,5R-OCH2CH2NMe3+)]T[Hyp][hTyr(3S-OH,4S-OH)]T[Pro(3S-OH,4S-Me)]; lactam 1-C), the IC50 against CYP2C8 was 25.7 µM; in data set [2], greater than 10 µM. Further, the fraction unbound in data set [1] is 0.009. Further, the “% remaining in human plasma” value in data set [3] is 93%. Besides, the survival was found to be 80% in data set [4] (0.2 mg/kg i.v. BID for 5 days), 90% in data set [4] (1 mg/kg i.v. BID for 5 days) and 100% in data set [4] (5 mg/kg i.v. BID for 5 days). In addition, in data set [4] (BID for 5 days, CD101 all dose groups and anidulafungin 1 and 5 mg/kg i.v. (P < 0.05), amphotericin B 0.3 mg/kg i.p.), the “10-day survival rate compared to the vehicle group” value is on record as “significant increase”. For the same compound, in data set [5] (14-day i.v. infusion, rats, CD101 20 mg/kg/day, anidulafungin 40 mg/kg/day (comparable exposure)), the “repeat-dose systemic or target organ toxicity” value is “did not appear to elicit any evidence of repeat-dose systemic or target organ toxicity”. For the same compound, the early deaths result in data set [5] (setting [7]) was “no early deaths”. In data set [5] (setting [7]), the “effects on body weight, hematology, coagulation, or urinalysis” value was “did not exhibit effects on body weight, hematology, coagulation, or urinalysis”. Also, the increases in neutrophils entry in data set [5] (CD101 2, 6, 20 mg/kg/day i.v. 14 days, rats, P ≤ 0.01, within normal limits, considered incidental) is on record as “up to 31%”. Further, the “increases in reticulocytes, hemoglobin, hematocrit, activated partial thromboplastin time, BUN, sodium, total bilirubin, total protein, chloride, and globulin” value in data set [5] (CD101 2, 6, 20 mg/kg/day i.v. 14 days, rats, P ≤ 0.05, within normal limits, considered incidental) was “less than 20%”. Further, the “microscopic changes in the liver” value in data set [5] (day 15, H&E, CD101 2, 6, or 20 mg/kg/day, anidulafungin 40 mg/kg/day (some of the females)) was “no microscopic changes”. The “degradation on incubation with and without GSH” value in data set [6] (PBS pH 7.4, 37°C, 24 h of incubation (Fig. 3 legend), LC-HRMS) is “No degradation observed”. Moreover, the “GSH adduct formation (reactive intermediate)” value in data set [6] (PBS pH 7.4, excess GSH, 37°C, LC with high-resolution MS) is “not found to generate any GSH adduct”.
